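Protocol summary: plate cells (96-well), add compound at 5 concentrations, incubate 48 h, interpolate endpoints linearly. GI50 is the concentration that inhibits growth by half. TGI marks complete inhibition of growth.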
Legend:
Test in all cases: NCI tumour cell line growth inhibition, 48 h
TK-10 renal = system: TK-10 renal
786-0 renal = system: 786-0 renal
SF-295 CNS = system: SF-295 CNS
HCC-2998 colon = system: HCC-2998 colon
IGROV1 ovarian = system: IGROV1 ovarian
UACC-257 melanoma = system: UACC-257 melanoma
DMS 273 small cell lung = system: DMS 273 small cell lung
M14 melanoma = system: M14 melanoma
KM20L2 colon = system: KM20L2 colon
SK-OV-3 ovarian = system: SK-OV-3 ovarian
RXF-631 renal = system: RXF-631 renal
SNB-19 CNS = system: SNB-19 CNS
HT29 colon = system: HT29 colon
MOLT-4 leukemia = system: MOLT-4 leukemia
SK-MEL-28 melanoma = system: SK-MEL-28 melanoma
SK-MEL-2 melanoma = system: SK-MEL-2 melanoma
RXF 393 renal = system: RXF 393 renal
OVCAR-5 ovarian = system: OVCAR-5 ovarian
SF-539 CNS = system: SF-539 CNS
U251 CNS = system: U251 CNS
RPMI-8226 leukemia = system: RPMI-8226 leukemia
SR leukemia = system: SR leukemia
OVCAR-3 ovarian = system: OVCAR-3 ovarian
OVCAR-8 ovarian = system: OVCAR-8 ovarian
LXFL 529 NSCLC = system: LXFL 529 NSCLC
CAKI-1 renal = system: CAKI-1 renal
UACC-62 melanoma = system: UACC-62 melanoma
HOP-18 NSCLC = system: HOP-18 NSCLC
SNB-78 CNS = system: SNB-78 CNS
UO-31 renal = system: UO-31 renal
DMS 114 small cell lung = system: DMS 114 small cell lung
HCT-15 colon = system: HCT-15 colon
A549 NSCLC = system: A549 NSCLC
COLO 205 colon = system: COLO 205 colon
EKVX NSCLC = system: EKVX NSCLC
MALME-3M melanoma = system: MALME-3M melanoma
SW-620 colon = system: SW-620 colon
LOX IMVI melanoma = system: LOX IMVI melanoma
HOP-92 NSCLC = system: HOP-92 NSCLC
K-562 leukemia = system: K-562 leukemia
SK-MEL-5 melanoma = system: SK-MEL-5 melanoma
NCI-H23 lung = system: NCI-H23 lung
SN12C renal = system: SN12C renal
XF 498 CNS = system: XF 498 CNS
HL-60(TB) leukemia = system: HL-60(TB) leukemia
CCRF-CEM leukemia = system: CCRF-CEM leukemia
NCI-H522 lung = system: NCI-H522 lung
OVCAR-4 ovarian = system: OVCAR-4 ovarian
SNB-75 CNS = system: SNB-75 CNS
ACHN renal = system: ACHN renal
DLD-1 colon = system: DLD-1 colon
KM12 colon = system: KM12 colon
HCT-116 colon = system: HCT-116 colon
NCI-H226 lung = system: NCI-H226 lung
HOP-62 NSCLC = system: HOP-62 NSCLC
NCI-H460 lung = system: NCI-H460 lung
M19-MEL melanoma = system: M19-MEL melanoma
SF-268 CNS = system: SF-268 CNS

`COC(=O)c1cc2c3ccccc3n(C(C)=O)c2cn1` showed a TGI (TK-10 renal) greater than 100 µM, a TGI (786-0 renal) greater than 100 µM and a TGI (SF-295 CNS) greater than 100 µM. It also gave a TGI (HCC-2998 colon) greater than 100 µM, a TGI (IGROV1 ovarian) greater than 100 µM and a TGI (UACC-257 melanoma) greater than 100 µM. For the same compound, the TGI (DMS 273 small cell lung) was greater than 100 µM, the TGI (M14 melanoma) was greater than 100 µM and the TGI (KM20L2 colon) was greater than 100 µM. It also gave a TGI (SK-OV-3 ovarian) greater than 100 µM, a TGI (RXF-631 renal) greater than 100 µM and a TGI (SNB-19 CNS) greater than 100 µM. It also gave a TGI (HT29 colon) greater than 100 µM, a TGI (MOLT-4 leukemia) greater than 100 µM and a TGI (SK-MEL-28 melanoma) greater than 100 µM. For the same compound, the TGI (SK-MEL-2 melanoma) was greater than 100 µM, the TGI (RXF 393 renal) was 87.1 µM and the TGI (OVCAR-5 ovarian) was greater than 100 µM. The TGI (SF-539 CNS) was greater than 100 µM, the TGI (U251 CNS) was greater than 100 µM and the TGI (RPMI-8226 leukemia) was greater than 100 µM. For the same compound, the TGI (SR leukemia) was greater than 100 µM, the TGI (OVCAR-3 ovarian) was greater than 100 µM and the TGI (OVCAR-8 ovarian) was greater than 100 µM. The TGI (LXFL 529 NSCLC) was greater than 100 µM, the TGI (CAKI-1 renal) was 48.9 µM and the TGI (UACC-62 melanoma) was greater than 100 µM. For the same compound, the TGI (HOP-18 NSCLC) was greater than 100 µM, the TGI (SNB-78 CNS) was greater than 100 µM and the TGI (UO-31 renal) was greater than 100 µM. The TGI (DMS 114 small cell lung) was greater than 100 µM, the TGI (HCT-15 colon) was greater than 100 µM and the TGI (A549 NSCLC) was greater than 100 µM. The TGI (COLO 205 colon) was greater than 100 µM, the TGI (EKVX NSCLC) was greater than 100 µM and the TGI (MALME-3M melanoma) was greater than 100 µM. For the same compound, the TGI (SW-620 colon) was greater than 100 µM, the TGI (LOX IMVI melanoma) was greater than 100 µM and the TGI (HOP-92 NSCLC) was greater than 100 µM. It also gave a TGI (K-562 leukemia) greater than 100 µM, a TGI (SK-MEL-5 melanoma) greater than 100 µM and a TGI (NCI-H23 lung) greater than 100 µM. For the same compound, the TGI (SN12C renal) was greater than 100 µM, the TGI (XF 498 CNS) was 89.9 µM and the TGI (HL-60(TB) leukemia) was greater than 100 µM. For the same compound, the TGI (CCRF-CEM leukemia) was greater than 100 µM, the TGI (NCI-H522 lung) was greater than 100 µM and the TGI (OVCAR-4 ovarian) was greater than 100 µM. The TGI (SNB-75 CNS) was greater than 100 µM, the TGI (ACHN renal) was greater than 100 µM and the TGI (DLD-1 colon) was greater than 100 µM. The TGI (KM12 colon) was greater than 100 µM, the TGI (HCT-116 colon) was greater than 100 µM and the TGI (NCI-H226 lung) was greater than 100 µM. It also gave a TGI (HOP-62 NSCLC) greater than 100 µM, a TGI (NCI-H460 lung) greater than 100 µM and a TGI (M19-MEL melanoma) greater than 100 µM.

`CC(O)C(N=Cc1ccccc1[O-])C(=O)[O-].CC(O)C(N=Cc1ccccc1[O-])C(=O)[O-].[Co+2]` (stereo unspecified) gave a GI50 (TK-10 renal) greater than 100 µM, a TGI (TK-10 renal) greater than 100 µM and a GI50 (786-0 renal) greater than 100 µM. It also gave a TGI (786-0 renal) greater than 100 µM, a GI50 (SF-295 CNS) greater than 100 µM and a TGI (SF-295 CNS) greater than 100 µM. The GI50 (HCC-2998 colon) was 59.8 µM, the TGI (HCC-2998 colon) was greater than 100 µM and the GI50 (IGROV1 ovarian) was greater than 100 µM. For the same compound, the TGI (IGROV1 ovarian) was greater than 100 µM, the GI50 (UACC-257 melanoma) was greater than 100 µM and the TGI (UACC-257 melanoma) was greater than 100 µM. For the same compound, the GI50 (M14 melanoma) was greater than 100 µM, the TGI (M14 melanoma) was greater than 100 µM and the GI50 (KM20L2 colon) was greater than 100 µM. The TGI (KM20L2 colon) was greater than 100 µM, the GI50 (SK-OV-3 ovarian) was 70.9 µM and the TGI (SK-OV-3 ovarian) was greater than 100 µM. It also gave a GI50 (RXF-631 renal) greater than 100 µM, a TGI (RXF-631 renal) greater than 100 µM and a GI50 (SNB-19 CNS) greater than 100 µM. It also gave a TGI (SNB-19 CNS) greater than 100 µM, a GI50 (MOLT-4 leukemia) of 19 µM and a TGI (MOLT-4 leukemia) greater than 100 µM. The GI50 (SK-MEL-28 melanoma) was 31.9 µM, the TGI (SK-MEL-28 melanoma) was greater than 100 µM and the GI50 (SK-MEL-2 melanoma) was greater than 100 µM. It also gave a TGI (SK-MEL-2 melanoma) greater than 100 µM, a GI50 (RXF 393 renal) greater than 100 µM and a TGI (RXF 393 renal) greater than 100 µM. The GI50 (OVCAR-5 ovarian) was greater than 100 µM, the TGI (OVCAR-5 ovarian) was greater than 100 µM and the GI50 (SF-539 CNS) was greater than 100 µM. For the same compound, the TGI (SF-539 CNS) was greater than 100 µM, the GI50 (RPMI-8226 leukemia) was 94.4 µM and the TGI (RPMI-8226 leukemia) was greater than 100 µM. For the same compound, the GI50 (SR leukemia) was 39.7 µM, the TGI (SR leukemia) was greater than 100 µM and the GI50 (OVCAR-3 ovarian) was greater than 100 µM. For the same compound, the TGI (OVCAR-3 ovarian) was greater than 100 µM, the GI50 (OVCAR-8 ovarian) was greater than 100 µM and the TGI (OVCAR-8 ovarian) was greater than 100 µM. For the same compound, the GI50 (UACC-62 melanoma) was 65.8 µM, the TGI (UACC-62 melanoma) was greater than 100 µM and the GI50 (HOP-18 NSCLC) was 70.8 µM. For the same compound, the TGI (HOP-18 NSCLC) was greater than 100 µM, the GI50 (SNB-78 CNS) was greater than 100 µM and the TGI (SNB-78 CNS) was greater than 100 µM. For the same compound, the GI50 (UO-31 renal) was 76.5 µM, the TGI (UO-31 renal) was greater than 100 µM and the GI50 (HCT-15 colon) was greater than 100 µM. For the same compound, the TGI (HCT-15 colon) was greater than 100 µM, the GI50 (A549 NSCLC) was greater than 100 µM and the TGI (A549 NSCLC) was greater than 100 µM. For the same compound, the GI50 (COLO 205 colon) was greater than 100 µM, the TGI (COLO 205 colon) was greater than 100 µM and the GI50 (SF-268 CNS) was 29.9 µM. It also gave a TGI (SF-268 CNS) greater than 100 µM, a GI50 (EKVX NSCLC) greater than 100 µM and a TGI (EKVX NSCLC) greater than 100 µM. For the same compound, the GI50 (MALME-3M melanoma) was greater than 100 µM, the TGI (MALME-3M melanoma) was greater than 100 µM and the GI50 (SW-620 colon) was 78.2 µM. The TGI (SW-620 colon) was greater than 100 µM, the GI50 (LOX IMVI melanoma) was greater than 100 µM and the TGI (LOX IMVI melanoma) was greater than 100 µM. For the same compound, the GI50 (HOP-92 NSCLC) was 47.7 µM, the TGI (HOP-92 NSCLC) was greater than 100 µM and the GI50 (K-562 leukemia) was 98.4 µM. It also gave a TGI (K-562 leukemia) greater than 100 µM, a GI50 (NCI-H23 lung) greater than 100 µM and a TGI (NCI-H23 lung) greater than 100 µM. The GI50 (SN12C renal) was greater than 100 µM, the TGI (SN12C renal) was greater than 100 µM and the GI50 (XF 498 CNS) was greater than 100 µM. The TGI (XF 498 CNS) was greater than 100 µM, the GI50 (HL-60(TB) leukemia) was 39.1 µM and the TGI (HL-60(TB) leukemia) was greater than 100 µM. The GI50 (CCRF-CEM leukemia) was 20.1 µM, the TGI (CCRF-CEM leukemia) was greater than 100 µM and the GI50 (NCI-H522 lung) was greater than 100 µM. The TGI (NCI-H522 lung) was greater than 100 µM, the GI50 (SNB-75 CNS) was greater than 100 µM and the TGI (SNB-75 CNS) was greater than 100 µM. For the same compound, the GI50 (ACHN renal) was greater than 100 µM, the TGI (ACHN renal) was greater than 100 µM and the GI50 (DLD-1 colon) was 83.7 µM. It also gave a TGI (DLD-1 colon) greater than 100 µM, a GI50 (KM12 colon) greater than 100 µM and a TGI (KM12 colon) greater than 100 µM. For the same compound, the GI50 (NCI-H226 lung) was 28.6 µM, the TGI (NCI-H226 lung) was greater than 100 µM and the GI50 (M19-MEL melanoma) was 78.8 µM. The TGI (M19-MEL melanoma) was greater than 100 µM.

Reference: PubChem BioAssay (NCI)
